Paper PMC4411898, “Impact of kinesin Eg5 inhibition by 3,4-dihydropyrimidin-2(1H)-one derivatives on various breast cancer cell features” (BMC Cancer, 2015)
Where two headings read alike, the source gives them in different places.

Tests used:
MDA-MB-231 cells [1] = assay: CD44+/CD24- expression analysis, MDA-MB-231; format: cell-based, human; settings: 24 h; for CD44-/CD24- subpopulation, MDA-MB-231 (mean ± SEM): 4m 1.0 mM, 4bt 0.8 mM, 4p 0.4 mM, 4bc 1.0 mM, 4x 0.8 mM, monastrol 1.0 mM; for CD44+/CD24+ subpopulation, MDA-MB-231 (mean ± SEM): control 1.507 ± 0.47
Protocol: (§1) For proliferation assays, cells were treated with IC50 concentrations of each compound. Adherent and floating cells were harvested at the same tube and pelleted by centrifugation at 300 g for 5 minutes and stained. Data acquisition of these two fractions put together was performed on a FACSCalibur flow cytometer using CellQuest software and analysed using the FloJo Software. Expression level of CD44 and CD24 in treated and control MCF-7 or MDA-MB-231 cells was measured after 24 h of treatment.

MDA-MB-231 cells [2] = assay: MTT cell viability assay, MDA-MB-231; format: cell-based, human; settings: for IC50: Homo sapiens, read-out: IC50 MDA-MB-231
Protocol: (§2) Absorbance readings were measured by a spectrophotometer. Cell viability was normalized to control (vehicle only).

MCF-7 cells [3] = assay: α-tubulin immunostaining, spindle formation; format: cell-based, human; settings: for Monoastral Spindle (%) 24 h / Bipolar Spindle (%) 24 h / Bipolar Spindle (%) 48 h / Monoastral Spindle (%) 48 h: n = 300 dividing cells; for Monoastral Spindle (%) 24 h: monastrol 0.1 mM; for Bipolar Spindle (%) 24 h / Bipolar Spindle (%) 48 h / Monoastral Spindle (%) 48 h: concentrations as E14; for Bipolar Spindle (%) 48 h / Monoastral Spindle (%) 48 h: MCF-7, 48 h
Protocol: Aliquots of 7 × 10^4 MCF-7 cells were seeded onto 12 mm round glass coverslips placed in the base of each well of a 24-well plate. After adhesion, cells were treated for 24 and 48 h with the pre-selected compounds at their maximum non-cytotoxic concentrations to normal cells or incubated with culture medium only for the same duration (negative control). Cells were washed with PBS, fixed with 3.7% formaldehyde, permeabilized with 0.1% Triton X-100 and blocked in PBS supplemented with 1% skimmed milk, 2.5% bovine serum albumin (BSA) and 8% fetal bovine serum (FBS) at room temperature. Cells were incubated overnight with mouse anti-α-tubulin antibody (1:500) at 4°C, followed by incubation with a secondary antibody: Alexa Fluor 488 rabbit anti-mouse IgG (1:400), for 1 hour at 37°C. Nuclei were stained with 300 nM DAPI. The coverslips were mounted with ProLong Gold Antifade and specimens observed under a laser scanning confocal microscope.
Table S1. Quantification of monopolar spindles occurred as a result of treatment with DHPM derivatives. MCF-7 control cells or cells treated for 24 or 48 h with 4m (1 mM), […]
antibody. The percentage of dividing cells showing presence of monoastral and bipolar spinles formation determined (n = 300).
Experimental Group Monoastral Spindle (%) Bipolar Spindle (%)

MDA-MB-231 cells [4] = assay: Apoptosis and necrosis assay (Annexin-V/PI flow cytometry), MDA-MB-231; format: cell-based, human; settings: 72 h; 4m 1.0 mM, 4bt 0.8 mM, 4p 0.4 mM, 4bc 1.0 mM, 4x 0.8 mM
Protocol: (§3) For proliferation assays, cells were treated with IC50 concentrations of each compound. Adherent and floating cells were harvested at the same tube and pelleted by centrifugation at 300 g for 5 minutes and stained. Data acquisition of these two fractions put together was performed on a FACSCalibur flow cytometer using CellQuest software and analysed using the FloJo Software. Untreated control cells and DHPMs-treated for 72 h cell samples were stained with Annexin-V-FITC or Annexin-V-Alexa Fluor® 680 and propidium iodide according to the manufacturer’s instructions.

MCF-7 cells [5] = assay: MTT cell viability assay, MCF-7; format: cell-based, human; settings: for IC50: Homo sapiens, read-out: IC50 MCF-7
Protocol: as §2

HUVEC cells = assay: HUVEC tube formation assay; format: cell-based, human; settings: 11 h; 30 μM, IC50 or 300 μM, mainly 300 μM
Protocol: The anti-angiogenic potential of DHPMs was tested using an in vitro Angiogenesis Assay Kit according to the manufacturer’s instructions. […] These plates were incubated for 11 hours at 37°C, in 5% CO2. Wells were subsequently photographed using an inverted light microscope at 20x magnification and tube formation analyzed. Seven fields per group of 3 independent experiments were quantified by pattern recognition according to manufacturer’s instructions.

MCF-7 cells [6] = assay: CD44+/CD24- expression analysis, MCF-7; format: cell-based, human; settings: 24 h; for CD44-/CD24- subpopulation, MCF-7 (mean ± SEM): 4m 1.0 mM, 4bt 0.8 mM, 4p 0.4 mM, 4bc 1.0 mM, 4x 0.8 mM, monastrol 1.0 mM; for CD44+/CD24+ subpopulation, MCF-7 (mean ± SEM) / CD44-/CD24+ subpopulation, MCF-7 (mean ± SEM) / CD44+/CD24- subpopulation, MCF-7 (mean ± SEM): concentrations as E28; for CD44+/CD24- subpopulation, MCF-7 (mean ± SEM): control 0.38 ± 0.18
Protocol: as §1

MCF-7 cells [7] = assay: Cell cycle analysis (PI), MCF-7; format: cell-based, human; settings: 4m 1 mM, 4bt 0.8 mM, 4p 0.4 mM, 4bc 1.0 mM, 4x 0.8 mM
Protocol: For proliferation assays, cells were treated with IC50 concentrations of each compound. Adherent and floating cells were harvested at the same tube and pelleted by centrifugation at 300 g for 5 minutes and stained. Data acquisition of these two fractions put together was performed on a FACSCalibur flow cytometer using CellQuest software and analysed using the FloJo Software. Control and DHPM-treated cells were harvested at 24, 48 and 72 h, resuspended in ice-cold PBS and fixed with 70% ethanol on ice. Cells were then washed with PBS, harvested and incubated with propidium iodide solution (0.1% Triton X-100, 10 μg/mL propidium iodide, 100 μg/mL DNase free RNase) for 10 min at 37°C. For analysis of cell populations in each cell cycle phase, the sub-G1 picks were excluded and the plots were generated by cell cycle platform data analysis by the FlowJo Software.

MCF-7 cells [8] = assay: Apoptosis and necrosis assay (Annexin-V/PI flow cytometry), MCF-7; format: cell-based, human; settings: 72 h; 4m 1.0 mM, 4bt 0.8 mM, 4p 0.4 mM, 4bc 1.0 mM, 4x 0.8 mM
Protocol: as §3

MCF-7 cells [9] = assay: Morphological alterations under inverted light microscope, MCF-7; format: cell-based, human; settings: 72 h, maximum non-cytotoxic concentration to normal cells
Protocol: Figure 2 DHPM derivatives cause severe morphological alterations on breast cancer cells. MCF-7 and MDA-MB-231 cells were treated with the maximum non-cytotoxic concentration to normal cells for 72 h and morphological alterations analyzed under an inverted light microscope. Cells with elongated morphology, adherent to the surface and normal size are shown by arrows. Cells with size reduction, absence of focal adhesion points, rounded morphology and detached from the surface where they had been seeded are shown by arrowheads.

[10] = tested on: Fibroblasts (primary culture from healthy human dental pulp)
Protocol: MCF-7 cell line and primary culture of connective tissue cells were provided by the Laboratory of Morphology, University of Brasília (Brasília, BR). MDA-MB-231 cells were purchased from Rio de Janeiro Cell Bank (RJCB - Rio de Janeiro, BR). Cell line characterization and authentication was conducted by RJCB using short tandem repeat profiling. Primary culture cells were taken from healthy human dental pulp predominantly consisting of fibroblasts and were used as normal control cells. MCF-7 cells and fibroblasts were grown in complete DMEM and maintained at 37°C with 5% CO2. MDA-MB-231 cells were grown in Leibovitz L15 medium at 37°C without CO2. Culture media were supplemented with 10% fetal bovine serum and 25 μg/mL of gentamicin.
Cytotoxicity was determined using 3-(4,5-dimethylthiazol-2-yl)-2,5-diphenylterazolium bromide (MTT) according to the manufacturer’s instructions. Absorbance readings were measured by a spectrophotometer. Cell viability was normalized to control (vehicle only).

[11] = all concentrations tested 100 μM – 1.00 mM, 72 h
[12] = MCF-7, 24 h, 4m 1.0 mM, 4bt 0.8 mM, 4p 0.4 mM, 4bc 1.0 mM, 4x 0.8 mM

SMILES: CC1(C)CC(=O)C2=C(C1)NC(=S)NC2c1cccc(O)c1 (stereo not shown) [Compound 4bt, Dimethylenastron]
- CD44-/CD24- subpopulation, MDA-MB-231 (mean ± SEM) (MDA-MB-231 cells [1]): 0.01 ± 0.00%
- CD44-/CD24+ subpopulation, MDA-MB-231 (mean ± SEM) (MDA-MB-231 cells [1]; concentrations as E32): 0.0 ± 0.0%
- CD44+/CD24+ subpopulation, MDA-MB-231 (mean ± SEM) (MDA-MB-231 cells [1]; concentrations as E32): 52.14 ± 10.60%
- IC50 (MDA-MB-231 cells [2]; MDA-MB-231, 72 h): 17.9 µM
- Effect on cell viability, MDA-MB-231 (MDA-MB-231 cells [2]; [11]): significant decrease in cell viability
- Monoastral Spindle (%) 24 h (MCF-7 cells [3]; [12]): 99.35%
- Bipolar Spindle (%) 24 h (MCF-7 cells [3]; MCF-7, 24 h): 0.65%
- Mitotic spindle / microtubule organization (α-tubulin immunostaining) (MCF-7 cells [3]; [12]): caused monoastral spindle formation
- Bipolar Spindle (%) 48 h (MCF-7 cells [3]): 20%
- Monoastral Spindle (%) 48 h (MCF-7 cells [3]): 80%
- Cell death by apoptosis, % of MDA-MB-231 cell population (MDA-MB-231 cells [4]): 83%
- IC50 (MCF-7 cells [5]; MCF7, 72 h): 127 µM
- Effect on cell viability, MCF-7 (MCF-7 cells [5]; [11]): significant decrease in cell viability
- HUVEC tube formation (pattern recognition / morphology) (HUVEC cells): more pronounced anti-angiogenic morphological aspect
- CD44-/CD24- subpopulation, MCF-7 (mean ± SEM) (MCF-7 cells [6]): 3.09 ± 0.46%
- CD44+/CD24+ subpopulation, MCF-7 (mean ± SEM) (MCF-7 cells [6]): 61.97 ± 19.91%
- CD44-/CD24+ subpopulation, MCF-7 (mean ± SEM) (MCF-7 cells [6]): 34.92 ± 19.45%
- CD44+/CD24- subpopulation, MCF-7 (mean ± SEM) (MCF-7 cells [6]): 0.005 ± 0.005%
- Cell cycle effect, MCF-7, 48 h (MCF-7 cells [7]): decrease of cells in G2/M and an increase of cells in S phase
- Cell death by apoptosis, % of MCF-7 cell population (MCF-7 cells [8]): 39%
- Morphological alterations, MCF-7 (MCF-7 cells [9]): produced the same results
- Maximum non-cytotoxic concentration to normal cells ([10]; fibroblasts, 72 h treatment, MTT): 0.8 mM

SMILES: CCOC(=O)C1=C(C)NC(=S)NC1c1cccc(O)c1 (stereo not shown) [Monastrol, reference compound]
- CD44-/CD24- subpopulation, MDA-MB-231 (mean ± SEM) (MDA-MB-231 cells [1]): 0.00 ± 0.003%
- CD44-/CD24+ subpopulation, MDA-MB-231 (mean ± SEM) (MDA-MB-231 cells [1]; concentrations as E32): 0.007 ± 0.003%
- CD44+/CD24+ subpopulation, MDA-MB-231 (mean ± SEM) (MDA-MB-231 cells [1]; concentrations as E32): 15.56 ± 6.96%
- CD44+/CD24- subpopulation, MDA-MB-231 (mean ± SEM) (MDA-MB-231 cells [1]; concentrations as E32, untreated control 98.45 ± 0.47): 84.41 ± 6.97%
- IC50 (MDA-MB-231 cells [2]; MDA-MB-231, 72 h treatment, MTT): 114 µM
- Monoastral Spindle (%) 24 h (MCF-7 cells [3]; [12]): 97.66%
- Bipolar Spindle (%) 24 h (MCF-7 cells [3]; MCF-7, 24 h): 2.33%
- Bipolar Spindle (%) 48 h (MCF-7 cells [3]): 8%
- Monoastral Spindle (%) 48 h (MCF-7 cells [3]): 92%
- IC50 (MCF-7 cells [5]; MCF7, 72 h treatment, MTT): 110 µM
- CD44-/CD24- subpopulation, MCF-7 (mean ± SEM) (MCF-7 cells [6]): 1.64 ± 0.43%
- CD44+/CD24+ subpopulation, MCF-7 (mean ± SEM) (MCF-7 cells [6]): 29.53 ± 5.30%
- CD44-/CD24+ subpopulation, MCF-7 (mean ± SEM) (MCF-7 cells [6]): 68.56 ± 5.93%
- CD44+/CD24- subpopulation, MCF-7 (mean ± SEM) (MCF-7 cells [6]): 0.2400 ± 0.20%
- Maximum non-cytotoxic concentration to normal cells ([10]; human, 72 h): 1.0 mM
